Calls of active or inactive are those of the source.
Columns and labels:
[1] = biological target: Keap1/Nrf2 (Homo sapiens, UniProt Q14145); assay: disruptors of Keap1 binding to Nrf2 peptide – biochemical, fluorescence polarization, cherry-picked samples, dose response (AID 588683)
[2] = biological target: T1, Corticotropin-releasing factor receptor 2/Corticotropin-releasing factor-binding protein (Homo sapiens, UniProt P24387+Q13324); assay: activators of CRF receptor 2 with binding protein – uHTS hits, confirmation (AID 602473); assay type: functional; conditions: read-out: EC50_Mean
T1 sequence (Q13324 whole entry): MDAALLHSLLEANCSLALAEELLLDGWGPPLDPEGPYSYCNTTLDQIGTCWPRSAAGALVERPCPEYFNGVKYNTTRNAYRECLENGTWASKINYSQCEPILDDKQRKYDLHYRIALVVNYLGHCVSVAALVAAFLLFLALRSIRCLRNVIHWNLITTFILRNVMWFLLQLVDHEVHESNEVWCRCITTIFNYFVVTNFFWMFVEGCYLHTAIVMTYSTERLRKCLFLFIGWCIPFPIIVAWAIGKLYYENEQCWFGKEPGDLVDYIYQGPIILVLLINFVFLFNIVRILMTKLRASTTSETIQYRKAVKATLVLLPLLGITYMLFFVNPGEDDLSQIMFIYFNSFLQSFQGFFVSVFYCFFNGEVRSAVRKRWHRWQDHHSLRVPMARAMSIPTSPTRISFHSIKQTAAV
T1 sequence (P24387 whole entry): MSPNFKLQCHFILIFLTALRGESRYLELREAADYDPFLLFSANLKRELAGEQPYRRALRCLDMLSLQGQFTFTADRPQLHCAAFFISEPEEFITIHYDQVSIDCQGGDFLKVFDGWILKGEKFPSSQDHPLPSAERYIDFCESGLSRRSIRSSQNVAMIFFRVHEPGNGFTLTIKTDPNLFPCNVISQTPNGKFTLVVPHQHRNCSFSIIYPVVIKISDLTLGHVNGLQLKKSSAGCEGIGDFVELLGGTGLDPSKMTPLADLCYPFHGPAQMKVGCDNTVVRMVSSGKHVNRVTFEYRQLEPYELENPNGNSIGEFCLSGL

[3] = biological target: T2, ORF 73 (Human herpesvirus 8, UniProt O40947); assay: KSHV LANA DNA-binding disruption – biochemical, fluorescence polarization, cherry-picked samples, dose response (AID 504725); parameters: species or system Human gammaherpesvirus 8;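 note: fluorescence polarization of a labeled DNA duplex reporting LANA DNA binding; potency is for inhibitors that block LANA binding to the DNA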
T2 sequence (O40947 whole entry): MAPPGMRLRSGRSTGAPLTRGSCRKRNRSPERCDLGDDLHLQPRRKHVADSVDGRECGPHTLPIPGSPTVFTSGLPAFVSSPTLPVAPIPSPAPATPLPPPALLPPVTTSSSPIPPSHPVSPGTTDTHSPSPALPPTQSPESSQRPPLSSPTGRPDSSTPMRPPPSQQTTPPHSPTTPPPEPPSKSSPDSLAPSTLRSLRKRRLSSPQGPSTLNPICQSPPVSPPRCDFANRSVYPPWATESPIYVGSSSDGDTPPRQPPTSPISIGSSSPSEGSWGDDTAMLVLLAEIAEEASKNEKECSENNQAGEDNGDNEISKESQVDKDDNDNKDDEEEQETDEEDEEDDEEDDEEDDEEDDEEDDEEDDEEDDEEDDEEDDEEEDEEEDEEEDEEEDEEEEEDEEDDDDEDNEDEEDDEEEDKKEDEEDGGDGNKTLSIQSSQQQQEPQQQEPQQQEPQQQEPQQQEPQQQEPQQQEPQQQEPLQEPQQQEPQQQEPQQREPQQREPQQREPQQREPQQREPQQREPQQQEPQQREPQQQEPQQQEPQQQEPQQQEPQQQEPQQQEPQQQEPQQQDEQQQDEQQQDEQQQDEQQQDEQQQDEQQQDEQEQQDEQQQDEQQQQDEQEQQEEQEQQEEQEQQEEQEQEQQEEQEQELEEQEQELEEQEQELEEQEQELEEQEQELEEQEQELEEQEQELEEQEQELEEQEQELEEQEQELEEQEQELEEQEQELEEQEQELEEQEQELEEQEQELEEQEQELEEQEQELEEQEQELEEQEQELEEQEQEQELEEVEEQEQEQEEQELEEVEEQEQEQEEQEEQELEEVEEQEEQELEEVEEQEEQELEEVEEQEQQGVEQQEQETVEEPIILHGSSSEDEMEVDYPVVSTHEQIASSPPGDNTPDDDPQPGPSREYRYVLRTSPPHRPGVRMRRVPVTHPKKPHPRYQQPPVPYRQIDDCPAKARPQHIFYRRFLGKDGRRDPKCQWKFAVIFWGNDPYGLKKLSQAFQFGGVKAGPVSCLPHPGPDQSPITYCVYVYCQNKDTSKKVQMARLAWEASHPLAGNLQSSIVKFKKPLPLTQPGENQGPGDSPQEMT

[4] = test system: HEK293; assay: HEK293T cell viability loss, resazurin readout – resazurin fluorescence, cytotoxicity control for NF-kB activator project, SAR follow-up (AID 493251); assay type: functional, cell-based; conditions: Homo sapiens
[5] = biological target: T3, Hexokinase HKDC1 (Homo sapiens, UniProt Q2TB90); assay: SAR analysis of small molecule inhibitors of hexokinase domain containing I (HKDC1). [Related pubchem assays (depositor defined):AID493160, AID493190]; assay type: functional
T3 sequence (Q2TB90 whole entry): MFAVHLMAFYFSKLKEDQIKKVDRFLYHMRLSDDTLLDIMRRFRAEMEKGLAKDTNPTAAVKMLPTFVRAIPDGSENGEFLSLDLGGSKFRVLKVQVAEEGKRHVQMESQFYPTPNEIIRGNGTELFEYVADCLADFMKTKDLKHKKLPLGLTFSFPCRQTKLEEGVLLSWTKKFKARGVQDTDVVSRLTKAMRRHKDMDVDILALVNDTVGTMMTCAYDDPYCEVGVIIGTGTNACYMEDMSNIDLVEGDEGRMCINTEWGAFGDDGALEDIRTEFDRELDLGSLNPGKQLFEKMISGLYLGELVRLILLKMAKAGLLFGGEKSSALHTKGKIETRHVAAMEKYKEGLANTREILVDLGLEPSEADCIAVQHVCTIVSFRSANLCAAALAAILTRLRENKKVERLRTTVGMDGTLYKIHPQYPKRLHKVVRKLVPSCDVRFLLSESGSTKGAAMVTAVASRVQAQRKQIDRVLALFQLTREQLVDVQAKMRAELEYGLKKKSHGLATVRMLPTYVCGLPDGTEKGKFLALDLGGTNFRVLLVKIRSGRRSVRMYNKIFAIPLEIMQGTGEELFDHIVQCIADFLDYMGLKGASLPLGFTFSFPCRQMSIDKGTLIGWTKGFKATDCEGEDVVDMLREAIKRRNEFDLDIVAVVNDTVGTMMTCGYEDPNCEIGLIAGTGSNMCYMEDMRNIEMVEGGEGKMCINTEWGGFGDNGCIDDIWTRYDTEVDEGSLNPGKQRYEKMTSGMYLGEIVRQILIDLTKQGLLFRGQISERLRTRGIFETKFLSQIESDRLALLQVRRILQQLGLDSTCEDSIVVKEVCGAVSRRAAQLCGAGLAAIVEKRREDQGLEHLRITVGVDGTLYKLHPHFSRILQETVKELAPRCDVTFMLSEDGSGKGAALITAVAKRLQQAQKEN

[6] = biological target: T4, Hexokinase-1 (Homo sapiens, UniProt P19367); assay: SAR analysis of small molecule inhibitors of hexokinase domain containing I (HKDC1) in the hexokinase 1 selectivity assay. [Related pubchem assays (depositor defined):AID493160, AID493190]; assay type: functional
T4 sequence (P19367 whole entry): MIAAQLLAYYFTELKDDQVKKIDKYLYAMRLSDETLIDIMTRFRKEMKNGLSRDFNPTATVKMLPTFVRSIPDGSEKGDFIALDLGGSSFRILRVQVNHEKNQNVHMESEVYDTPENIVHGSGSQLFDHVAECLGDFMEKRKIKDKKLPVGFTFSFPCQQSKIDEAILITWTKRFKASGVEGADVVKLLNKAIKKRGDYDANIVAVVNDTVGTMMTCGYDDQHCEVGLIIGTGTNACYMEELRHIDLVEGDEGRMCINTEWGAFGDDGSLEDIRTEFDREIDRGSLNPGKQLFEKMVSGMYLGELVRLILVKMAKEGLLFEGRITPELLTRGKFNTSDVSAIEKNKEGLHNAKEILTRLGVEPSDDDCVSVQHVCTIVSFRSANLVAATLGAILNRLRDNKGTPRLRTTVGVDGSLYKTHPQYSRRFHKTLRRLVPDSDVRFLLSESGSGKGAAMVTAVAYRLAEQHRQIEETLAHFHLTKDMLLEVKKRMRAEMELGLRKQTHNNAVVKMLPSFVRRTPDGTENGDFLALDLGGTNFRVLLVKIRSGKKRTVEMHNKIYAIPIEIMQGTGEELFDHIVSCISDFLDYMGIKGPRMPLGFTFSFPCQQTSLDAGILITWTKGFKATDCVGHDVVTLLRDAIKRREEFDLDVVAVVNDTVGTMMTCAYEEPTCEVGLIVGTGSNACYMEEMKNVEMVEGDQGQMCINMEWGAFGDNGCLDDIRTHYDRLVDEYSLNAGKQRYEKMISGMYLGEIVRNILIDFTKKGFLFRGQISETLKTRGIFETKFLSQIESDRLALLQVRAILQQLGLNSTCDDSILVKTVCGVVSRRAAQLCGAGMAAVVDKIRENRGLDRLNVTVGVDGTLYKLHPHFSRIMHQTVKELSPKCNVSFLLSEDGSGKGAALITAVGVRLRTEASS

Sequence of Keap1/Nrf2 (Q16236 whole entry): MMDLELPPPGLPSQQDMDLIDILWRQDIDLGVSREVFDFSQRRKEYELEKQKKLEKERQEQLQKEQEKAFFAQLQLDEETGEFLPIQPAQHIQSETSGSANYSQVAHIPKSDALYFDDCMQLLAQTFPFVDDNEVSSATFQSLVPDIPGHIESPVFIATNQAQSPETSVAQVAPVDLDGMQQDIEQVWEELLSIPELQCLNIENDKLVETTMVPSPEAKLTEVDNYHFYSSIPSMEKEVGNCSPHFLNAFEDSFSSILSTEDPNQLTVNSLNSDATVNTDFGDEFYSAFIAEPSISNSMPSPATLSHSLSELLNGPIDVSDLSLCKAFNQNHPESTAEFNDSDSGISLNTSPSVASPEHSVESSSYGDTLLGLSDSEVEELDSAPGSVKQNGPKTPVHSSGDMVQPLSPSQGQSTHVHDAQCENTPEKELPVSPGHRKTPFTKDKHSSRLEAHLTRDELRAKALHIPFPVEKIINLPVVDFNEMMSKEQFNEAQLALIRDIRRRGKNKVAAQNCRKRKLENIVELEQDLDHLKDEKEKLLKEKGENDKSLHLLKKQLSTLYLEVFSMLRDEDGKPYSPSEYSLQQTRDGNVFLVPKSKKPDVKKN
Sequence of Keap1/Nrf2 (Q14145 whole entry): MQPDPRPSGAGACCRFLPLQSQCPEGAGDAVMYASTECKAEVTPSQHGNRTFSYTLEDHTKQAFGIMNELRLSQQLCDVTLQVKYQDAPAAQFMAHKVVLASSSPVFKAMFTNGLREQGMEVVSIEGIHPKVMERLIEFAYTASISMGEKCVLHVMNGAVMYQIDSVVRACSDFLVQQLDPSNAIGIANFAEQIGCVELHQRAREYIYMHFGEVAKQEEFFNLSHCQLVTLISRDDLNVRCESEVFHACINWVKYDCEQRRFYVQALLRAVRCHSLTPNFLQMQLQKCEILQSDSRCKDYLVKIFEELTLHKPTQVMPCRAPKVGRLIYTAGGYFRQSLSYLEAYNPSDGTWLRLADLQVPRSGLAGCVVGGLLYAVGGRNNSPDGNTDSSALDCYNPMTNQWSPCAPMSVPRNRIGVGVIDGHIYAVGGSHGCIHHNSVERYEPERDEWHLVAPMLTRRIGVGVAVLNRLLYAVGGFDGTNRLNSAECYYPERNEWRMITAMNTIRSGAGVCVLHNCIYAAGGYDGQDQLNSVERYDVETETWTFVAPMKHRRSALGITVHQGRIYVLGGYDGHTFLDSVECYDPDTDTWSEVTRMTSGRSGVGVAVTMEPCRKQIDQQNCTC

Structure (SMILES)	AC50 [1]	AC50 [3]	IC50 [5]	IC50 [6]	further results
CCC1(c2ccccc2)NC(=O)N(CC(=O)Nc2ccc(OC)nc2)C1=O (stereo not given)	5.31 µM (active)	8.04 µM (active)			EC50 [2]: 18.6 µM (active)
Cc1cc[n+](-c2[n-]c(=O)sc2/C=N/NC(=O)c2ccccc2)cc1C	11.8 µM (active)	13.3 µM (active)			
CCNC(=O)CCc1nc(-c2ccccc2)no1					IC50 [4]: > 80 µM (inactive)
O=c1c2ccccc2nc(/C=C/c2ccc(O)cc2)n1Cc1ccccc1			> 80 µM (inactive)	> 80 µM (inactive)	
Cc1cc2nnc(SCC(=O)Nc3cccc(S(=O)(=O)N4CCCCC4)c3)n2c2ccccc12			> 80 µM (inactive)	> 80 µM (inactive)	

From ChEMBL document CHEMBL1201862, “PubChem BioAssay data set” (2004)
